Source: article PMC4447944 (The Journal of Biological Chemistry, 2015)

What was measured:
mono-methyl-Lys370 p53 = assay: Meso Scale Discovery sandwich ELISA mono-methyl-Lys370 p53/total p53, KYSE-150 cells stably expressing FLAG-SMYD2; type: cell-based; conditions: Homo sapiens; KYSE-150 stably expressing SMYD2, sandwich ELISA, 24 h
Procedure: Cell lysates were subject to 10% SDS-PAGE and transferred to a PVDF membrane. Each membrane was blocked in Odyssey Blocking Buffer (LI-COR Biosciences) and incubated with monoclonal anti-p53 (D01) antibody (Abcam, ab1101) or rabbit anti-p53 Lys^370me1 antibody (a kind gift from Dr. Shelley Berger) followed by detection with IRDye®680RD goat anti-mouse IgG (LI-COR Biosciences) and IRDye800CW goat anti-rabbit IgG (LI-COR Biosciences) on the Odyssey Imager (LI-COR Biosciences). […] 4–8 h later, cells were treated with 0–25 μM compound for 15 h. […] 24 h later, cells were lysed with 200 μl of MSD Tris Lysis Buffer^TM (Meso Scale Discovery). A MULTI-ARRAY^TM 96-well plate (Meso Scale Discovery, catalog number L15XA-3) was precoated with 2 μg/ml custom-made methyl-p53 antibody (Lampire) in PBS overnight at 4 °C. 150 μl/well MSD Blocking Solution A^TM (final concentration of 3%) was added followed by shaking at room temperature for 1 h. The plate was washed three times with 1× MSD Tris Wash Buffer^TM (Meso Scale Discovery). 0.5 μg of cell lysate in 25 μl/well MSD Tris Lysis Buffer was added, followed by shaking overnight at 4 °C. […] Following a final wash three times with 1× MSD Tris Wash Buffer, 150 μl/well 1× MSD Read Buffer^TM (Meso Scale Discovery) was added, and plates were read on an MSD SECTOR^TM Imager 6000 instrument (Meso Scale Discovery).

[1] = test system: lysine methylation of histone H3 or H4; assay: Mass spectrometry proteomics of cell-derived histones, SMYD2-overexpressing KYSE-150 cells; type: cell-based, human; conditions: 5 μM LLY-507 versus untreated cells
Procedure: Acid-extracted histone samples were chemically derivatized using propionic anhydride and digested with trypsin for 6 h at 37 °C. The digested peptides were treated with an additional round of propionylation and desalted using a C18 extracted mini disk (Empore 3M). Approximately 1 μg of each sample was loaded via an autosampler (Eksigent NanoLC.Ultra 2D Plus) onto a homemade precolumn (3-μm particle size, 120-Å pore size) at a flow rate of 2 μl/min. Peptides were chromatographically resolved via a 75-μm reversed phase analytical column packed with C18-AQ resin (1.9-μm particle size, 120-Å pore size) using a 77-min 2–98% solvent B gradient (solvent A, 0.1% formic acid; solvent B, 100% acetonitrile) at a flow rate of 250 nl/min. The electrosprayed peptides were detected by an Orbitrap Elite^TM mass spectrometer (Thermo Fisher Scientific) with a resolution of 120,000 for full MS spectrum followed by MS/MS spectra obtained in the ion trap. The relative abundance of each modification, expressed as a percentage on a histone peptide sequence, was quantified by analyzing its MS and MS/MS spectra via Epiquant, an in-house software.

hABL1(pE255K) = target: T1, hABL1(pE255K) (Homo sapiens, UniProt P00519, E255K); assay: KINOMEscan; type: binding
T1 construct: purchased DiscoverX (KINOMEscan platform)

hBRSK1 = target: T2, hBRSK1 (Homo sapiens, UniProt Q8TDC3); assay: KINOMEscan; type: binding
T2 construct: purchased DiscoverX

hDAPK1 = target: T3, hDAPK1 (Homo sapiens, UniProt P53355); assay: KINOMEscan; type: binding
T3 construct: purchased DiscoverX (KINOMEscan platform)

hDRAK1 = target: T4, hDRAK1 (Homo sapiens, UniProt Q9UEE5); assay: KINOMEscan; type: binding
T4 construct: purchased DiscoverX

hEPHB4 = target: T5, hEPHB4 (Homo sapiens, UniProt P54760); assay: KINOMEscan; type: binding
T5 construct: purchased DiscoverX

hFLT1 = target: T6, hFLT1 (Homo sapiens, UniProt P17948); assay: KINOMEscan; type: binding
T6 construct: purchased DiscoverX

hFLT3(K663Q) = target: T7, hFLT3(K663Q) (Homo sapiens, UniProt P36888, K663Q); assay: KINOMEscan; type: binding
T7 construct: purchased DiscoverX

hFLT3(N841I) = target: T8, hFLT3(N841I) (Homo sapiens, UniProt P36888, N841I); assay: KINOMEscan; type: binding
T8 construct: purchased DiscoverX

hLRRK2 = target: T9, hLRRK2 (Homo sapiens, UniProt Q5S007); assay: KINOMEscan; type: binding
T9 construct: purchased DiscoverX (KINOMEscan platform)

hLRRK2(G2019S) = target: T10, hLRRK2(G2019S) (Homo sapiens, UniProt Q5S007, G2019S); assay: KINOMEscan; type: binding
T10 construct: purchased DiscoverX (KINOMEscan platform)

hMEK1 = target: T11, hMEK1 (Homo sapiens, UniProt Q02750); assay: KINOMEscan; type: binding
T11 construct: purchased DiscoverX

hMEK5 = target: T12, hMEK5 (Homo sapiens, UniProt Q13163); assay: KINOMEscan; type: binding
T12 construct: purchased DiscoverX

hMET(M1250T) = target: T13, hMET(M1250T) (Homo sapiens, UniProt P08581, M1250T); assay: KINOMEscan; type: binding
T13 construct: purchased DiscoverX

hRSK4(Kin.Dom.1-N-term) = target: T14, hRSK4(Kin.Dom.1-N-term) (Homo sapiens, UniProt Q9UK32); assay: KINOMEscan; type: binding
T14 construct: hRSK4(Kin.Dom.1-N-term); purchased DiscoverX (KINOMEscan platform)

hS6K1 = target: T15, hS6K1 (Homo sapiens, UniProt P23443); assay: KINOMEscan; type: binding
T15 construct: purchased DiscoverX (KINOMEscan platform)

hSRPK1 = target: T16, hSRPK1 (Homo sapiens, UniProt Q96SB4); assay: KINOMEscan; type: binding
T16 construct: purchased DiscoverX (KINOMEscan platform)

hTIE1 = target: T17, hTIE1 (Homo sapiens, UniProt P35590); assay: KINOMEscan; type: binding
T17 construct: purchased DiscoverX

hTLK2 = target: T18, hTLK2 (Homo sapiens, UniProt Q86UE8); assay: KINOMEscan; type: binding
T18 construct: purchased DiscoverX

hTNNI3K = target: T19, hTNNI3K (Homo sapiens, UniProt Q59H18); assay: KINOMEscan; type: binding
T19 construct: purchased DiscoverX

hWNK1 = target: T20, hWNK1 (Homo sapiens, UniProt Q9H4A3); assay: KINOMEscan; type: binding
T20 construct: purchased DiscoverX

hLXRα = target: T21, hLXRα (Homo sapiens, UniProt Q13133); assay: Nuclear hormone receptor assay (Eurofins-CEREP); conditions: read-out: Relative IC50
T21 construct: Eurofins-CEREP

hD1 = hD1 (Homo sapiens, UniProt P21728); assay: cAMP 1% DMSO Potentiation (Eurofins-CEREP); conditions: @ 10 μM

T15 sequence (P23443 whole entry): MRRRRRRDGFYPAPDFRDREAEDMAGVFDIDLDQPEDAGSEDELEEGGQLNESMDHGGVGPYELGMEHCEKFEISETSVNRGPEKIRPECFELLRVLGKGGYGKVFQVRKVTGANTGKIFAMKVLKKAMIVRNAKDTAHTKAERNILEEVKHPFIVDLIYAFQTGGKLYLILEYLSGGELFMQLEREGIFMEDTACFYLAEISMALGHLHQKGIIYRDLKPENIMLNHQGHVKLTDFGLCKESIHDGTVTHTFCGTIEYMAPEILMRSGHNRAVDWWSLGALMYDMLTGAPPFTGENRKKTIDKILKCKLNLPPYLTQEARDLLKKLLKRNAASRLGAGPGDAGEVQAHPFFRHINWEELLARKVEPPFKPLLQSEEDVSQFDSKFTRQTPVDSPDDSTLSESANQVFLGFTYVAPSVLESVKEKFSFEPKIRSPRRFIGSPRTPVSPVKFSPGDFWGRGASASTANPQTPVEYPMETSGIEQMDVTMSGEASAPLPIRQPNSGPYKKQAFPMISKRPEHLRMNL
T5 sequence (P54760 16-987): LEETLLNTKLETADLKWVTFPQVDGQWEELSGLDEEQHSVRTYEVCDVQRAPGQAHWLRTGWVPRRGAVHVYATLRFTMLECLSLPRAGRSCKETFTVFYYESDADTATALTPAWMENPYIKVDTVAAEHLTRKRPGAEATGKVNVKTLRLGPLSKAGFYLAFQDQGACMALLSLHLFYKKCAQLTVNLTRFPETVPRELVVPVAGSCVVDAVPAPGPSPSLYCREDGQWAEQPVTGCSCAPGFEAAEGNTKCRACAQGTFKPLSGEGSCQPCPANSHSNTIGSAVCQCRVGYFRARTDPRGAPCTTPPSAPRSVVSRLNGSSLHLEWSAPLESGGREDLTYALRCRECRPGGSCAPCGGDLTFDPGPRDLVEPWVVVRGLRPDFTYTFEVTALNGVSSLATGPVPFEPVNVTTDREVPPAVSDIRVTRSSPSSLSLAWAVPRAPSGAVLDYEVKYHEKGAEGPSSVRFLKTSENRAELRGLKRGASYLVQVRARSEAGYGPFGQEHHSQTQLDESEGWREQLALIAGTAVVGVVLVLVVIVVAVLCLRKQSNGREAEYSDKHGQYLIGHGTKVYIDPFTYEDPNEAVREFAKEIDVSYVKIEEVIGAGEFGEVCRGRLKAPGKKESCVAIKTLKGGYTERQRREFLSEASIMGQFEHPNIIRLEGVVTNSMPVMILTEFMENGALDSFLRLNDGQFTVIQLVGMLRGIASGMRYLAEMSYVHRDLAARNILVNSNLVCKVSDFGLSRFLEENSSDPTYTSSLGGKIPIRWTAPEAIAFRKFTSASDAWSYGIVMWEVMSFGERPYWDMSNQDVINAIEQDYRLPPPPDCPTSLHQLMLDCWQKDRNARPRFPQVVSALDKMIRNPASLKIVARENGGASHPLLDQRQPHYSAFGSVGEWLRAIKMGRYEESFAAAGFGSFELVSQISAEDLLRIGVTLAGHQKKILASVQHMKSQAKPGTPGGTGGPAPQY
T21 sequence (Q13133 whole entry): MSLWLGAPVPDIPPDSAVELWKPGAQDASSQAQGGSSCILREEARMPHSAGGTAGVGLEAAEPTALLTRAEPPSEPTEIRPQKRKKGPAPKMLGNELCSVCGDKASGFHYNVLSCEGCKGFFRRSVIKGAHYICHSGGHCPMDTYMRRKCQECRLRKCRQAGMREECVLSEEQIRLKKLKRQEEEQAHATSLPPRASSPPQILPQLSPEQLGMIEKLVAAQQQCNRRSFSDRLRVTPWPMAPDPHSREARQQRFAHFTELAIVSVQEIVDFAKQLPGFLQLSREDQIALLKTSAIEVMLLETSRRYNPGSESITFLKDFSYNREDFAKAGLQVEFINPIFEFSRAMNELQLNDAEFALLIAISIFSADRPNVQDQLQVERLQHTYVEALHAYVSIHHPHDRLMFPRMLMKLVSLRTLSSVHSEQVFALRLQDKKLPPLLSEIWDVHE
T14 sequence (Q9UK32 73-330 limits assumed): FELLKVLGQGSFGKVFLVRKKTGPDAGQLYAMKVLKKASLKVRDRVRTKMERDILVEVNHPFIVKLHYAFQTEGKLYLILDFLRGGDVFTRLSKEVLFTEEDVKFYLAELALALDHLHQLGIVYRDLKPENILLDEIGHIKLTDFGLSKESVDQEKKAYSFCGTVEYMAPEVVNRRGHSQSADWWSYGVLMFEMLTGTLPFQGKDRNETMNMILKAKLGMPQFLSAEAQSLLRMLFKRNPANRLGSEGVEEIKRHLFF
T13 sequence (P08581 25-1390 M1250T): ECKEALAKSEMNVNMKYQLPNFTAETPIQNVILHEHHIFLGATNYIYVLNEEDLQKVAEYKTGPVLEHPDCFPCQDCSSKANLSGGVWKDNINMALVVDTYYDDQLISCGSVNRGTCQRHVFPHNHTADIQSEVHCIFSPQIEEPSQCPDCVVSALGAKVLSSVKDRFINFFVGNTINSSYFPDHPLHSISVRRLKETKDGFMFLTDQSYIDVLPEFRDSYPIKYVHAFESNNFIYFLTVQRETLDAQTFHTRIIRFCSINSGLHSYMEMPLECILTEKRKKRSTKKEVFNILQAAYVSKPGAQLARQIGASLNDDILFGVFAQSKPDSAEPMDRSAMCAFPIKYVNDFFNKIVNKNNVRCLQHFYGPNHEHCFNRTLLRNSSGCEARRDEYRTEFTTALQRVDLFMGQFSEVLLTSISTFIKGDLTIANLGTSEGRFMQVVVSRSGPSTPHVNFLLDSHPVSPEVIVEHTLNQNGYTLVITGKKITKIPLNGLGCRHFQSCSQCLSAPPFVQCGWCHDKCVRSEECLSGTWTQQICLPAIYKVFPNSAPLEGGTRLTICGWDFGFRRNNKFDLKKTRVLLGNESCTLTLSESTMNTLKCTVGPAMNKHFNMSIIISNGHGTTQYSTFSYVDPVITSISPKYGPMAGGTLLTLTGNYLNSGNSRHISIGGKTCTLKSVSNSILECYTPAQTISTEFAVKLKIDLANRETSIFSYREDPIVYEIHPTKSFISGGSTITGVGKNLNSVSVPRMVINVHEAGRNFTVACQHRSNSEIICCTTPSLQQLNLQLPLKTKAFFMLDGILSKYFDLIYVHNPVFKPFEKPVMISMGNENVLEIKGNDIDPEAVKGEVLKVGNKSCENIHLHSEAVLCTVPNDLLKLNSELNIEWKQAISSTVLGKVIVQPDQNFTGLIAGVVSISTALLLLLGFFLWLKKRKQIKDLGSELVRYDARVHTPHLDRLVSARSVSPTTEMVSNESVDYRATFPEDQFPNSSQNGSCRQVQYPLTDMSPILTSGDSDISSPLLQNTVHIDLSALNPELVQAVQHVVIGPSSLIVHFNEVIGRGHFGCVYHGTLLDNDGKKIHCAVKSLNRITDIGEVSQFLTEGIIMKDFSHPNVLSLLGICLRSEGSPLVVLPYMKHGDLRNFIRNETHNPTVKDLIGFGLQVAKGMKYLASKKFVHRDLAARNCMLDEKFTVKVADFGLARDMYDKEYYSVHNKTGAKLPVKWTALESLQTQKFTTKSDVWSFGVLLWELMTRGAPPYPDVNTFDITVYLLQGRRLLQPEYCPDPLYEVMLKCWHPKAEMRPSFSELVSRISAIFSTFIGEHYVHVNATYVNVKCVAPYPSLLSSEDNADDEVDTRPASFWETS
T11 sequence (Q02750 whole entry): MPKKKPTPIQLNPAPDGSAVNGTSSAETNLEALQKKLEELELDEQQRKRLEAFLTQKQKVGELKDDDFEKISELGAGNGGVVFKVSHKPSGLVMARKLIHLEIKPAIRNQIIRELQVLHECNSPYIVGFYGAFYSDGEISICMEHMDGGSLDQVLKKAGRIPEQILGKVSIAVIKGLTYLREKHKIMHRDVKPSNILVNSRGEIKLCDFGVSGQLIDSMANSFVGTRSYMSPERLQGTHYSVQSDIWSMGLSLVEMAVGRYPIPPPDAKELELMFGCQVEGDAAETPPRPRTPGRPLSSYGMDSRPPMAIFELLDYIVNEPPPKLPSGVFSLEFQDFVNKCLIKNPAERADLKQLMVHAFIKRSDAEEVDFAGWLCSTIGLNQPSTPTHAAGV
T16 sequence (Q96SB4 whole entry): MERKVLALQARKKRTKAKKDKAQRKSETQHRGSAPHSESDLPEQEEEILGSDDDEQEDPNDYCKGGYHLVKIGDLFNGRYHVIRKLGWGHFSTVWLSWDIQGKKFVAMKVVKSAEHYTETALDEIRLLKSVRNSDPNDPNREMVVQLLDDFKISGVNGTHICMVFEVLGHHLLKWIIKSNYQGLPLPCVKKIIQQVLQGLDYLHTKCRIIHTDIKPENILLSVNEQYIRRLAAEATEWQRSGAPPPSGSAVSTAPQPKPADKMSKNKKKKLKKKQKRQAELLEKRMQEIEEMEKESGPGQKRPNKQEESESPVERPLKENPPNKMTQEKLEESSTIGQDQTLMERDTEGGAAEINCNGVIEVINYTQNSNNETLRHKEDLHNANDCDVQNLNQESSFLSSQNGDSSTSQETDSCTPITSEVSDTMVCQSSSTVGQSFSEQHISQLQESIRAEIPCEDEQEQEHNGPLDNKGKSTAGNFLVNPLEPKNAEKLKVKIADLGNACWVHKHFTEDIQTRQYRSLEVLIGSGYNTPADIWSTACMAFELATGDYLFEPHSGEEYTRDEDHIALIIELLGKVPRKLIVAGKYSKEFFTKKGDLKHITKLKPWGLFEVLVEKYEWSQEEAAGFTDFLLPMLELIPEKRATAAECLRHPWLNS
T4 sequence (Q9UEE5 whole entry): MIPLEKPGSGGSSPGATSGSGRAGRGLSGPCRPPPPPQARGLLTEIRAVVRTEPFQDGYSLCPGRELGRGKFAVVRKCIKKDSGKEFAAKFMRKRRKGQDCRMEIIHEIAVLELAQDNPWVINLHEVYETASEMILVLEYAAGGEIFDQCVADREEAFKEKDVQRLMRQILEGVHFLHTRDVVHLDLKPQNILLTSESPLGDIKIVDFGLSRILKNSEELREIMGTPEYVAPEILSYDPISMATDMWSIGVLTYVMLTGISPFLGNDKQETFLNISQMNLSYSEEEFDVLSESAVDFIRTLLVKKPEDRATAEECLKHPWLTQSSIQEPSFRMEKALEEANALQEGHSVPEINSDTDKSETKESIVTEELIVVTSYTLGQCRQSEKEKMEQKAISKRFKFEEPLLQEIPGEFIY

Cc1cn(CCN2CCN(c3ccccc3-c3cc(C#N)cc(C(=O)NCCCN4CCCC4)c3)CC2)c2ccccc12 [LLY-507, 3-cyano-5-{2-[4-[2-(3-methylindol-1-yl)ethyl]piperazin-1-yl]-phenyl}-N-[(3-pyrrolidin-1-yl)propyl]benzamide]
did not show any significant change: change in lysine methylation of histone H3 or H4 [1]
0.6 µM: IC50 (mono-methyl-Lys370 p53)
> 10 µM: IC50 (hLXRα)
-19.4%: % Effect, Potentiation (hD1)
> 20 µM: IC50 (hABL1(pE255K)) | IC50 (hBRSK1) | IC50 (hDAPK1) | IC50 (hDRAK1) | IC50 (hEPHB4) | IC50 (hFLT1) | IC50 (hFLT3(K663Q)) | IC50 (hFLT3(N841I)) | IC50 (hLRRK2) | IC50 (hLRRK2(G2019S)) | IC50 (hMEK1) | IC50 (hMEK5) | IC50 (hMET(M1250T)) | IC50 (hRSK4(Kin.Dom.1-N-term)) | IC50 (hS6K1) | IC50 (hSRPK1) | IC50 (hTIE1) | IC50 (hTLK2) | IC50 (hTNNI3K) | IC50 (hWNK1)
